Literature values in PMC11376147 (Chemical Science, 2024).

Biological target: T1, DC-SIGN ECD (Homo sapiens, UniProt Q9NNX6)
T1 sequence (Q9NNX6 66-404): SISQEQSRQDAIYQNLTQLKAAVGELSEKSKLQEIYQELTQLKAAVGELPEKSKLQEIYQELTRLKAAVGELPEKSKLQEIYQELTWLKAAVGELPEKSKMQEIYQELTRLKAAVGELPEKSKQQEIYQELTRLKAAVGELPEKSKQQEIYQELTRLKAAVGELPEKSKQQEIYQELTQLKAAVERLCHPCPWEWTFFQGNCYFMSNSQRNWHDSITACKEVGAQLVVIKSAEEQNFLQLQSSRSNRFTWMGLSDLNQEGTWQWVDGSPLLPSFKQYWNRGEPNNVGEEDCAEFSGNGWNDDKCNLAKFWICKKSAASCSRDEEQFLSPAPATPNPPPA
Details: read-out: IC50 DC-SIGN; SPR inhibition, Spike surface; cited from earlier work

OC[C@H]1OC(O)[C@@H](O)[C@@H](O)[C@@H]1O (stereo partly shown) [mannose]
IC50: 3000 µM
